Among the data in patent US12331044B2, “Inhibitors of histone deacetylase useful for the treatment or prevention of HIV infection” (Merck Sharp & Dohme LLC, priority 2018, dated 2025) are EC50 and IC50 values, retold here.

A word on the EC50: it is the midpoint of the concentration-response curve. A word on the IC50: it is the concentration that inhibits the measured activity by half. Lower therefore signals greater potency in that assay.

Like-named read-outs stand apart in the source and are kept apart here.

Test [1] deals with KARN cells (Jurkat 2C4). The test is described as follows: cells. Particulars: Homo sapiens.
In test [2] the target is HDAC6 (Homo sapiens (Human), UniProt Q9UBN7).
[3] abbreviates: read-out: Karn EC50 nM 0.1% NHS, 0.1% normal human serum, luciferase induction, 2 μM SAHA = 100%.
Where [4] appears, read: read-out: Karn EC50 nM 5% NHS, 5% normal human serum, luciferase induction, 2 μM SAHA = 100%.

Sequence of HDAC6 (Q9UBN7 whole entry): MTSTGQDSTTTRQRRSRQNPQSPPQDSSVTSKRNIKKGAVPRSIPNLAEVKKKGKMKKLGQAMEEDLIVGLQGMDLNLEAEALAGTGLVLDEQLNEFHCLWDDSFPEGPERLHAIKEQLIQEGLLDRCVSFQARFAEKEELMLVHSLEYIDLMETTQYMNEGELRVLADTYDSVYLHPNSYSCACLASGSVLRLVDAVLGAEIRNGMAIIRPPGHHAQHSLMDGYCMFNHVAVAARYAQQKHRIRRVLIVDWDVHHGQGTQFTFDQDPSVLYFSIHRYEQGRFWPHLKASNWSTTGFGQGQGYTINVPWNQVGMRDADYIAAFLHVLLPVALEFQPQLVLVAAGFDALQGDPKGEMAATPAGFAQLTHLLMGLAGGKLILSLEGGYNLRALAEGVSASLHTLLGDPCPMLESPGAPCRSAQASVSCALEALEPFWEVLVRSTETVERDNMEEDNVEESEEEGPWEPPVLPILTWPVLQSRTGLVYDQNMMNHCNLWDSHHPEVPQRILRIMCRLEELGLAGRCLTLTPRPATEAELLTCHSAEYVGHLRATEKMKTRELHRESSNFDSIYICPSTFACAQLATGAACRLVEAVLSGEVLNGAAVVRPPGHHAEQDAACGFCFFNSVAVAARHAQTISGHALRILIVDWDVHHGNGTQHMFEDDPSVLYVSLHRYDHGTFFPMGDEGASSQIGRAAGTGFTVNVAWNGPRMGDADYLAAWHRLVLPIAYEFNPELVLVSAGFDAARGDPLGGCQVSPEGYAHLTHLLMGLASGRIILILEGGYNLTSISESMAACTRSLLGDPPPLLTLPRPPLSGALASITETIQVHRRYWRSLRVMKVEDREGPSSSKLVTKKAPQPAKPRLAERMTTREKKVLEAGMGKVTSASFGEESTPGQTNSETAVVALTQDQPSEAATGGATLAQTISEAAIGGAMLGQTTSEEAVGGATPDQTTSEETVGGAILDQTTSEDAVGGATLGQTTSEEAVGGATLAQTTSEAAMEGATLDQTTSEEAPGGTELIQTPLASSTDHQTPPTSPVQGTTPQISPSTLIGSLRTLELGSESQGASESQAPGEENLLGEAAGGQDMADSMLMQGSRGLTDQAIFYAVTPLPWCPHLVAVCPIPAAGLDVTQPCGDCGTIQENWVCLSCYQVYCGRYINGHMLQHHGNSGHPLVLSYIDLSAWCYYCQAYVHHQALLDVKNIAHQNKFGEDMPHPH

Consider `COc1ncccc1-c1cnc([C@H](CCCCCC(=O)c2ncco2)NC(=O)C2CN(C)C2)o1` (stereo in doubt) [Example 104, N-(1-(5-(2-methoxypyridin-3-yl)oxazol-2-yl)-7-(oxazol-2-yl)-7-oxoheptyl)-1-methylazetidine-3-carboxamide], for which the figures for the EC50 in test [1] (setting [3]) and in test [1] (setting [4]) were 40 nM and 44 nM, respectively. This compound came in with an IC50 in test [2] of over 900 nM.

Consider `O=C(CCCCC[C@H](NC(=O)c1cncs1)c1nc(-c2ccc(F)cc2)c[nH]1)c1ncco1` [Example 2, (S)-N-(1-(4-(4-fluorophenyl)-1H-imidazol-2-yl)-7-(oxazol-2-yl)-7-oxoheptyl)thiazole-5-carboxamide], for which the EC50 is 44 nM in test [1] (setting [3]) and 97 nM in test [1] (setting [4]). In test [2], this compound gave an IC50 of 45000 nM.

As for `CN1CCC(C(=O)N[C@@H](CCCCCC(=O)c2ncco2)c2nc(-c3ccc(F)cc3)c[nH]2)CC1` [Example 3, (S)-N-(1-(4-(4-fluorophenyl)-1H-imidazol-2-yl)-7-(oxazol-2-yl)-7-oxoheptyl)-1-methylpiperidine-4-carboxamide], the EC50 in test [1] (setting [3]) worked out at 18 nM; in test [1] (setting [4]), 26 nM. This compound registered a 50% inhibitory concentration (IC50) in test [2] of 45000 nM.

Take `O=C(CCCCC[C@H](NC(=O)[C@H]1CC12CCOCC2)c1nc(-c2ccc(F)cc2)c[nH]1)c1ncco1` [Example 5, N-((S)-1-(4-(4-fluorophenyl)-1H-imidazol-2-yl)-7-(oxazol-2-yl)-7-oxoheptyl)-6-oxaspiro[2.5]octane-1-carboxamide]: the EC50 in test [1] (setting [3]) worked out at 63 nM; in test [1] (setting [4]) it was 130 nM. In addition, the IC50 in test [2] worked out at 45000 nM.

`O=C(N[C@@H](CCCCCC(=O)c1nccs1)c1nc(-c2ccc(F)cc2)c[nH]1)c1cncs1` [Example 7, (S)-N-(1-(4-(4-fluorophenyl)-1H-imidazol-2-yl)-7-oxo-7-(thiazol-2-yl)heptyl)thiazole-5-carboxamide]: the concentration giving a half-maximal response (EC50) in test [1] (setting [3]) was 23 nM; in test [1] (setting [4]), 8400 nM. The same compound displayed an IC50 in test [2] of 45000 nM.

Take `Cc1coc(C(=O)CCCCC[C@H](NC(=O)C2CCN(C)CC2)c2nc(-c3ccc(F)cc3)c[nH]2)n1` [Example 8, (S)-N-(1-(4-(4-fluorophenyl)-1H-imidazol-2-yl)-7-(4-methyloxazol-2-yl)-7-oxoheptyl)-1-methylpiperidine-4-carboxamide]: in test [2], the IC50 stood at 15000 nM.

As for `COc1nc(C)ccc1-c1c[nH]c([C@@H](N)CCCCCC(=O)c2ncco2)n1` [Example 11], the EC50 in test [1] (setting [3]) stood at 620 nM; in test [1] (setting [4]), 670 nM. Besides, the IC50 in test [2] was found to be 45000 nM.

For the compound `COc1cc2nc(C)ccc2cc1-c1c[nH]c([C@@H](N)CCCCCC(=O)c2ncco2)n1` [Example 12, (S)-7-amino-7-(5-(7-methoxy-2-methylquinolin-6-yl)-1H-imidazol-2-yl)-1-(oxazol-2-yl)heptan-1-one], the EC50 in test [1] (setting [3]) was 66 nM; in test [1] (setting [4]), 80 nM. The IC50 in test [2] is 8300 nM.

As to `COc1nc2cnccc2cc1-c1c[nH]c([C@@H](N)CCCCCC(=O)c2ncco2)n1` [Example 13], the EC50 in test [1] (setting [3]) worked out at 94 nM; in test [1] (setting [4]) it was 140 nM. In test [2], this compound showed an IC50 of 45000 nM.

For `CN(C)c1ccc2cc(-c3cnc([C@@H](N)CCCCCC(=O)c4ncco4)[nH]3)ccc2n1` [Example 18], the EC50 was found to be 93 nM in test [1] (setting [3]) and 130 nM in test [1] (setting [4]). The compound further displayed an IC50 in test [2] of over 1500 nM.

`N[C@@H](CCCCCC(=O)c1ncco1)c1ncc(-c2ccc(-c3cnccn3)cc2)[nH]1` [Example 20]: the EC50 in test [1] (setting [3]) was determined as 450 nM; in test [1] (setting [4]), 340 nM. Also, in test [2], the IC50 worked out at 45000 nM.

For `Cn1c(=O)ccc2cc(-c3c[nH]c([C@@H](N)CCCCCC(=O)c4ccon4)n3)ccc21` [Example 32, (S)-6-(2-(1-amino-7-(isoxazol-3-yl)-7-oxoheptyl)-1H-imidazol-4-yl)-1-methylquinolin-2(1H)-one], the concentration giving a half-maximal response (EC50) was found to be 26 nM in test [1] (setting [3]) and 35 nM in test [1] (setting [4]). In test [2], this compound gave an IC50 of 15000 nM.

For the compound `COc1cc2c(ccc(=O)n2C)cc1-c1cnc([C@@H](N)CCCCCC(=O)c2ccon2)[nH]1` [Example 35, (S)-6-(2-(1-amino-7-(isoxazol-3-yl)-7-oxoheptyl)-1H-imidazol-5-yl)-7-methoxy-1-methylquinolin-2(1H)-one], the EC50 in test [1] (setting [3]) is 72 nM; in test [1] (setting [4]), 50 nM. In test [2], this compound displayed an IC50 of 15000 nM.

As to `Cc1ccc2cc(-c3c[nH]c([C@H](CCCCCC(=O)c4ccon4)NC(=O)C4CN(C)C4)n3)ccc2n1` [Example 43], the EC50 was 8.5 nM in test [1] (setting [3]) and 14 nM in test [1] (setting [4]). Moreover, 1800 nM corresponded to half-maximal inhibition in test [2] (IC50).

Consider `CN(C)CC(=O)N[C@@H](CCCCCC(=O)c1ccon1)c1nc(-c2ccccc2F)c[nH]1` [Example 47], for which the EC50 came to 3.7 nM in test [1] (setting [3]) and 10 nM in test [1] (setting [4]). In test [2], the IC50 was determined as 9100 nM.

The compound `Cc1cc(C(=O)CCCCC[C@H](NC(=O)C2CN(C)C2)c2nc(-c3ccccc3F)c[nH]2)no1` [Example 59] returned an IC50 in test [2] of 45000 nM.

`CC(C(=O)N[C@@H](CCCCCC(=O)c1ccon1)c1ncc(-c2ccccc2F)[nH]1)N(C)C` (some centres unmarked) [Example 61]: the EC50 in test [1] (setting [3]) was found to be 3.6 nM; in test [1] (setting [4]) it was 5.8 nM. The compound also came in with an IC50 in test [2] of over 900 nM.

As for `CN(C)C1(C(=O)N[C@@H](CCCCCC(=O)c2ccon2)c2ncc(-c3ccccc3F)[nH]2)CC1` [Example 62], the EC50 in test [1] (setting [3]) amounted to 50 nM; in test [1] (setting [4]), 100 nM. In test [2], this compound came in with an IC50 of over 900 nM.

For `CN(C)CC(=O)N[C@@H](CCCCCC(=O)c1ncco1)c1[nH]c(-c2ccc(F)cc2)nc1Cl` [Example 90], the EC50 amounted to 14 nM in test [1] (setting [3]) and 34 nM in test [1] (setting [4]). Besides, half-maximal inhibition in test [2] (IC50) was put at 26000 nM.

For the compound `N[C@@H](CCCCCC(=O)c1ccon1)c1ccn(-c2ccc(F)cc2)n1` [Example 120, (7S)-7-amino-7-[1-(4-fluorophenyl)-1H-pyrazol-3-yl]-1-isoxazol-3-ylheptan-1-one], it took 45000 nM to reach half-maximal inhibition in test [2] (IC50).

With `NC(CCCCCC(=O)c1ccon1)c1cnn(-c2ccc(F)cc2)n1` (centres unmarked) [Example 123, 7-amino-7-[2-(4-fluorophenyl)-2H-1,2,3-triazol-4-yl]-1-isoxazol-3-ylheptan-1-one], half-maximal inhibition in test [2] (IC50) was put at 45000 nM.

For the compound `Cn1cc2cc(-c3cc([C@@H](N)CCCCCC(=O)c4ccon4)no3)ccc2n1` [Example 126, (7S)-7-amino-1-isoxazol-3-yl-7-[5-(2-methyl-2H-indazol-5-yl)isoxazol-3-yl]heptan-1-one], the EC50 in test [1] (setting [3]) is 170 nM; in test [1] (setting [4]), 250 nM. This compound also returned an IC50 in test [2] of over 900 nM.

For the compound `N[C@@H](CCCCCC(=O)c1ncco1)c1ncc(-c2cc(OC3CCC3)ccc2F)[nH]1` [Example 130, (7S)-7-amino-7-{5-[5-(cyclobutyloxy)-2-fluorophenyl]-1H-imidazol-2-yl}-1-(1,3-oxazol-2-yl)heptan-1-one], the EC50 in test [1] (setting [3]) was found to be 1600 nM; in test [1] (setting [4]), 4600 nM. The compound further yielded an IC50 in test [2] of over 900 nM.

In the case of `N#Cc1cnc(-c2cnc([C@@H](N)CCCCCC(=O)c3ncco3)[nH]2)cn1` [Example 132, 5-{2-[(1S)-1-amino-7-(1,3-oxazol-2-yl)-7-oxoheptyl]-1H-imidazol-5-yl}pyrazine-2-carbonitrile], the EC50 was 25000 nM in test [1] (setting [3]) and 30000 nM in test [1] (setting [4]).

As to `N#Cc1cncc(-c2cnc([C@@H](N)CCCCCC(=O)c3ncco3)[nH]2)n1` [Example 133, 6-{2-[(1S)-1-amino-7-(1,3-oxazol-2-yl)-7-oxoheptyl]-1H-imidazol-5-yl}pyrazine-2-carbonitrile], the EC50 in test [1] (setting [3]) amounted to 23000 nM; in test [1] (setting [4]), 25000 nM.

On to `N[C@@H](CCCCCC(=O)c1ncco1)c1ncc(-c2cc(OC(F)(F)F)ccc2F)[nH]1` [Example 142, (7S)-7-amino-7-{5-[2-fluoro-5-(trifluoromethoxy)phenyl]-1H-imidazol-2-yl}-1-(1,3-oxazol-2-yl)heptan-1-one], for which the EC50 was 1200 nM in test [1] (setting [3]) and 270 nM in test [1] (setting [4]). For the same compound, in test [2], the IC50 is over 900 nM.

In the case of `COCC(=O)N[C@@H](CCCCCC(=O)c1ncco1)c1ncc(-c2cc3ccccc3nc2OC)[nH]1` [Example 147, 2-methoxy-N-[(1S)-1-[5-(2-methoxyquinolin-3-yl)-1H-imidazol-2-yl]-7-(1,3-oxazol-2-yl)-7-oxoheptyl]acetamide], the EC50 in test [1] (setting [3]) stood at 50 nM; in test [1] (setting [4]) it was 490 nM. This compound also gave an IC50 in test [2] of 15000 nM.

Regarding `COc1nc2ccccc2cc1-c1cnc([C@H](CCCCCC(=O)c2ncco2)NC(=O)C(C)(F)F)[nH]1` [Example 148, 2,2-difluoro-N-[(1S)-1-[5-(2-methoxyquinolin-3-yl)-1H-imidazol-2-yl]-7-(1,3-oxazol-2-yl)-7-oxoheptyl]propanamide], the results for the EC50 in test [1] (setting [3]) and in test [1] (setting [4]) were 54 nM and 450 nM, respectively. Also, inhibition in test [2] was half-maximal at 3400 nM (IC50).

For the compound `CCN1CCC2(CC1)C[C@@H]2C(=O)N[C@@H](CCCCCC(=O)c1ccon1)c1cc(-c2ccccc2F)on1` [Example 175, (1S)-6-ethyl-N-{(1S)-1-[5-(2-fluorophenyl)isoxazol-3-yl]-7-isoxazol-3-yl-7-oxoheptyl}-6-azaspiro[2.5]octane-1-carboxamide], the EC50 in test [1] (setting [3]) was determined as 13 nM; in test [1] (setting [4]), 19 nM.

`CCN1CCC2(CC1)C[C@@H]2C(=O)N[C@@H](CCCCCC(=O)c1ccon1)c1cc(-c2ccc3nn(C)cc3c2)on1` [Example 176, (1S)-6-ethyl-N-{(1S)-7-isoxazol-3-yl-1-[5-(2-methyl-2H-indazol-5-yl)isoxazol-3-yl]-7-oxoheptyl}-6-azaspiro[2.5]octane-1-carboxamide]: the values for the EC50 in test [1] (setting [3]) and in test [1] (setting [4]) were 14 nM and 13 nM, respectively.

For the compound `CN1CCC2(CC1)CC(C(=O)N[C@@H](CCCCCC(=O)c1ccon1)c1cc(-c3ccc4nn(C)cc4c3)on1)=NO2` [Example 177, N-{(1S)-7-isoxazol-3-yl-1-[5-(2-methyl-2H-indazol-5-yl)isoxazol-3-yl]-7-oxoheptyl}-8-methyl-1-oxa-2,8-diazaspiro[4.5]dec-2-ene-3-carboxamide], the EC50 in test [1] (setting [3]) amounted to 33 nM; in test [1] (setting [4]), 55 nM.
